Experiments:
[1] = biological target: angiotensin-conversion enzyme (ACE) (Homo sapiens, UniProt P12821); assay: ACE-inhibitory activity; format: biochemical; details: for IC50: method of Analytical Biochemistry, 84, 361 (1978)
Experimental: Thus, we have tested the enzyme-inhibitory activities of some typical compounds of this invention against angiotensin-conversion enzyme (ACE) which participates in the control of blood-pressure in mammalian animals by converting angiotensin I, a peptide-type hormone in brain, into angiotensin II. The determination of ACE-inhibitory activity was carried out in accordance with the method described in "Analytical Biochemistry", 84, 361 (1978) and the activity was estimated in term of the concentration (mole concentration, M) of each compound tested at which the activity of the enzyme can be inhibited by 50% (IC50).

enkephalinase = enkephalinase (Homo sapiens, UniProt P08473); assay: Enkephalinase-inhibitory activity; format: biochemical; details: for IC50: concentration which inhibits enzymatic activity of enkephalinase by 50%
Experimental: IC50 concentrations (M concentration) of some typical compounds of this invention which can inhibit enzymatic activity of enkephalinase by 50% were measured.

peptidases = details: Journal of Antibiotics, 38, 1629-1630 (1985); U.S. Pat. No. 4,663,342; cited from earlier work

Sequence of enkephalinase (P08473 whole entry, species assumed): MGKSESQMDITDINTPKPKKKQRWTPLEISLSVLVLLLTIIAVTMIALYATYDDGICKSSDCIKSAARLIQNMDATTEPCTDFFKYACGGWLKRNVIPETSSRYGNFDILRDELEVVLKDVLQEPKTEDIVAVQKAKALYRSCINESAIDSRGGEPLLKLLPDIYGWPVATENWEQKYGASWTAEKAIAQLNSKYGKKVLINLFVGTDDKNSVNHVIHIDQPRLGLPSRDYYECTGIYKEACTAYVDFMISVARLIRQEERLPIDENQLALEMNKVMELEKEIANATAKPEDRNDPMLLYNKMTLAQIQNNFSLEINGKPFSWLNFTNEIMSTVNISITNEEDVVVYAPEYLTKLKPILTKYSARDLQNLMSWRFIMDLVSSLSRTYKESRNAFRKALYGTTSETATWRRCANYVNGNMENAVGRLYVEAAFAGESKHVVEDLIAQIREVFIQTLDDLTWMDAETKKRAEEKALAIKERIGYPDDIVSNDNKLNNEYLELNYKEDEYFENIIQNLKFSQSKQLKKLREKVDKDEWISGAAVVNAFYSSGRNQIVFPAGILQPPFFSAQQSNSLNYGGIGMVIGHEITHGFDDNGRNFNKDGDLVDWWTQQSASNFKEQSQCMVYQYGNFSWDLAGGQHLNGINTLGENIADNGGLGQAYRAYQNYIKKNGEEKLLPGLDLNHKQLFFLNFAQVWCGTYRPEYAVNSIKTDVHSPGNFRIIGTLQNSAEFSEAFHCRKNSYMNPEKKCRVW
Sequence of angiotensin-conversion enzyme (ACE) (P12821 30-1306, species assumed): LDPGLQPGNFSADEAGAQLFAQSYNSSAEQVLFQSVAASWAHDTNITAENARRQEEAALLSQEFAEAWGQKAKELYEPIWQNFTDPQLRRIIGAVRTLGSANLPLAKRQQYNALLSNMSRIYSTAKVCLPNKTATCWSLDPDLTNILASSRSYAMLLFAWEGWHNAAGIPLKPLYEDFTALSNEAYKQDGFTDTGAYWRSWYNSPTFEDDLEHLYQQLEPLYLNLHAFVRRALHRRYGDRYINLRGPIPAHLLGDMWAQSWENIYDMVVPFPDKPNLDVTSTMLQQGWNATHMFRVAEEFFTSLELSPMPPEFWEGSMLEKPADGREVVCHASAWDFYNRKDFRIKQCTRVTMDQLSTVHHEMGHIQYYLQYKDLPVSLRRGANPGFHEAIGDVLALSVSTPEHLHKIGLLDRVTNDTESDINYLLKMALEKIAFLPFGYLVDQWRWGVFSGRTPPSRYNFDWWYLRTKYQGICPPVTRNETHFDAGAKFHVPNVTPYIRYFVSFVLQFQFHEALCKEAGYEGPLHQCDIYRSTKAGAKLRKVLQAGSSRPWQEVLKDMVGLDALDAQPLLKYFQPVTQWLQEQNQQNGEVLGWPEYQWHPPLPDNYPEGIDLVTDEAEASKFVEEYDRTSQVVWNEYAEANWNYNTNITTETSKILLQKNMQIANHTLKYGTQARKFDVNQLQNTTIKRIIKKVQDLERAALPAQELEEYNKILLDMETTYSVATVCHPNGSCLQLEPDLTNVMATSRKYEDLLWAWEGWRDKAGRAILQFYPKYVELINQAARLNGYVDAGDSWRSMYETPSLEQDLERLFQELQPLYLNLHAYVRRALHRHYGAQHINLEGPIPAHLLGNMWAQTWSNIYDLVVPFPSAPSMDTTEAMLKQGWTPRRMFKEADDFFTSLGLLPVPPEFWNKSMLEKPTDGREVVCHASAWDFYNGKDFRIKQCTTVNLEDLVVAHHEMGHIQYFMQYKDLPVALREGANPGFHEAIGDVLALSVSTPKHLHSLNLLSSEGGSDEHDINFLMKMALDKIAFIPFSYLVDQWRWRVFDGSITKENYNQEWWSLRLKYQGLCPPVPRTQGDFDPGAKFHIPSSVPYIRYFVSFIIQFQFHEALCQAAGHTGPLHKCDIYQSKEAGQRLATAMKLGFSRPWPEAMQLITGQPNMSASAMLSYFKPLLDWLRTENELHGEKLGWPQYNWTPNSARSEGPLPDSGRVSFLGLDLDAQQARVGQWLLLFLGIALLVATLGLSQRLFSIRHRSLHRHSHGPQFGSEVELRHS

Structure (SMILES)	IC50 [1] [µM]	IC50 (enkephalinase) [µM]	inhibitory activities against angiotensin-converting enzymes (in words) [1]	inhibits a wide variety of peptidases (in words) (peptidases)	enkephalinase-inhibitory activity, times stronger than that of actinonin (enkephalinase; relative to actinonin as reference, from Table 2)
CCCCC[C@H](CC(=O)NOS(=O)(=O)O)C(=O)NC(C(=O)N1CCC[C@H]1COS(=O)(=O)O)C(C)C (stereo in doubt) [Compound of formula (Ia), (2R)-2-(Sulfoxyaminocarbonylmethyl)heptanoyl-L-valyl-(2S)-2-(sulfoxymethyl)pyrrolidine]	92	14	–	–	–
CCCCC[C@H](CC(=O)NO)C(=O)NC(C(=O)N1CCC[C@H]1COS(=O)(=O)O)C(C)C (stereo in doubt) [Compound of formula (Ig), (2R)-2-(Hydroxyaminocarbonylmethyl)heptanoyl-L-valyl-(2S)-2-(sulfoxymethyl)pyrrolidine]	430	4.1	–	–	–
CCCCC[C@H](CC(=O)NO)C(=O)N[C@H](C(=O)N1CCC[C@H]1C(=O)NO)C(C)C [Compound of formula (Id), (2R)-2-(Hydroxyaminocarbonylmethyl)heptanoyl-L-valyl-L-proline.hydroxamide]	0.53	1.2	–	–	–
CCCCC[C@H](CC(=O)NO)C(=O)N[C@H](C(=O)N1CCC[C@H]1CO)C(C)C [Actinonin, actinonin]	590	5.6	low levels of inhibitory activity	inhibits a wide variety of peptidases	–
CCCCC[C@H](CC(=O)NO)C(=O)NC(C(=O)N1CCC[C@H]1C(=O)O)C(C)C (stereo in doubt) [Compound of formula (Ib), (2R)-2-(Hydroxyaminocarbonylmethyl)heptanoyl-L-valyl-L-proline]	28	0.31	–	–	more than 10 times

Source: patent publication US5206384A, “Actinonin derivatives and pharmaceutically acceptable salts thereof” (Zaidan Hojin Biseibutsu Kagaku Kai, priority 1990, dated 1993)
